Assay [1] has as its target Tyrosine-protein kinase ABL (Homo sapiens, UniProt P00519+P42684). As to the kind of experiment: Inhibition of v-Abl tyrosine kinase. In kind it is protein assay.
Assay [2] has as its target Proto-oncogene tyrosine-protein kinase Src (Homo sapiens, UniProt P12931). As to the kind of experiment: Inhibition of p60 c-Src tyrosine kinase.
Assay [3] has as its target Platelet-derived growth factor receptor (Homo sapiens, UniProt P09619+P16234). As to the kind of experiment: Inhibition of Platelet-derived growth factor receptor-dependent phosphorylation. In kind it is protein-complex assay.
The target in assay [4] is T1, Epidermal growth factor receptor (Homo sapiens, UniProt P00533). The assay can be described thus: Inhibition of Epidermal growth factor receptor-dependent phosphorylation.
T1 sequence (P00533 whole entry): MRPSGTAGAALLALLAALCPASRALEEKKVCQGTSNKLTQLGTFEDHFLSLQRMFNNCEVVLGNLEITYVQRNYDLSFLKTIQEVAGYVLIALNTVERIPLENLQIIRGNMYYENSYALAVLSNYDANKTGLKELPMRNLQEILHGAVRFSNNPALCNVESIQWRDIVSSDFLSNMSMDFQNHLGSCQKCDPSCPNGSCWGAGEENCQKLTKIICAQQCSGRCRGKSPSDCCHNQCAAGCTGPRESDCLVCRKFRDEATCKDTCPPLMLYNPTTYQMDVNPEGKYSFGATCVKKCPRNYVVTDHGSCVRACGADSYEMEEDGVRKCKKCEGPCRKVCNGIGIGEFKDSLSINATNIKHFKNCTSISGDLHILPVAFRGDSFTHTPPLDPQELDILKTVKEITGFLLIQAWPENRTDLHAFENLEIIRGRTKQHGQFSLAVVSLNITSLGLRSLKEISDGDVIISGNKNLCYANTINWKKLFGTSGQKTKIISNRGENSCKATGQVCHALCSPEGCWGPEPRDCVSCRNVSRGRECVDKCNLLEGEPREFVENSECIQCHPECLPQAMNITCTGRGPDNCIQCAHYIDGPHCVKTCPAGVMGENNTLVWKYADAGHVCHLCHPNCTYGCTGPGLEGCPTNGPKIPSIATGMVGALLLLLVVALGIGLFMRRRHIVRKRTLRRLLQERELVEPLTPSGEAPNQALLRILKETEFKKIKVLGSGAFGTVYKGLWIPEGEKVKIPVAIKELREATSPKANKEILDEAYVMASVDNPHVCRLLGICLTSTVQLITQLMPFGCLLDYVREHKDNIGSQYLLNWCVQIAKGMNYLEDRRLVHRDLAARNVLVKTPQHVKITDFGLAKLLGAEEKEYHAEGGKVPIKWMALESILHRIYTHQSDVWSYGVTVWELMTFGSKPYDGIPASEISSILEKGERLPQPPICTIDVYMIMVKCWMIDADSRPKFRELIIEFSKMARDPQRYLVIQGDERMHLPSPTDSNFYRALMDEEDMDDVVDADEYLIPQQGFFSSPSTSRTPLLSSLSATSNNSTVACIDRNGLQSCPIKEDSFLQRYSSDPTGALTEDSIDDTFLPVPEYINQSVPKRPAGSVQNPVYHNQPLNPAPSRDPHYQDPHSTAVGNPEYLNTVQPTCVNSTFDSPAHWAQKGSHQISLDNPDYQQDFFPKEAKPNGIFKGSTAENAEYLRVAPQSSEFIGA
Assay [5] has as its target Protein kinase C alpha type (Homo sapiens, UniProt P17252). The assay can be described thus: Inhibition of Protein kinase C alpha.
For assay [6], the target named is T1, Epidermal growth factor receptor. As to the kind of experiment: Inhibition of Epidermal growth factor receptor.

What is called IC50 is the concentration at which inhibition is half-maximal. Lower therefore signals higher potency.

Proto-oncogene tyrosine-protein kinase Src, sequence (P12931 2-536 limits assumed): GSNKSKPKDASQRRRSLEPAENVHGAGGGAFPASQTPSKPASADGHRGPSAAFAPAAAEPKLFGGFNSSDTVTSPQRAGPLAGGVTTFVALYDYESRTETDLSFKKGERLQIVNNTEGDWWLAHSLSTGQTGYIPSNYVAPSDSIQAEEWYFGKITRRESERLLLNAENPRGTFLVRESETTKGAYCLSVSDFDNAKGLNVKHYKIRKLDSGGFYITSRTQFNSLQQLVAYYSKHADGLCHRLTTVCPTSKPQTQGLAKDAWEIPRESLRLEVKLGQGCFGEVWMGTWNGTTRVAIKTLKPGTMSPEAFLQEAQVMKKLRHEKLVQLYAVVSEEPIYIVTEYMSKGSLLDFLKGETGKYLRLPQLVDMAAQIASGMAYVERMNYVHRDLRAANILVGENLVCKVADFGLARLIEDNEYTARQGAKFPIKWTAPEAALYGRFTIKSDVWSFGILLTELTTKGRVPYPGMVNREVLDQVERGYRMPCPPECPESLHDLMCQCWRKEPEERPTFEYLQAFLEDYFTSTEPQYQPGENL

As for `COc1cc(O)c2c(=O)c(-c3cccc(Cl)c3)cn(C)c2c1`, the IC50 in assay [1] is above 10 µM; in assay [2] it was above 10 µM; in assay [3], above 10 µM; in assay [4], 3 µM; in assay [5], above 100 µM; in assay [6], 0.17 µM.
In the case of `COc1cc(O)c2c(=O)c(-c3cccc(Cl)c3)coc2c1`, the IC50 is above 100 µM in assay [1]; above 100 µM in assay [2]; above 10 µM in assay [3]; above 100 µM in assay [4]; above 100 µM in assay [5]; 1.27 µM in assay [6].
As for `COc1cc(O)c2c(=O)c(-c3cccc(Cl)c3)cn(CCc3ccccc3)c2c1`, the IC50 in assay [3] was above 10 µM; in assay [4] it was 1.5 µM; in assay [6] it was 4 µM.
The compound `O=c1c(-c2cccc(Cl)c2)coc2cc(O)ccc12` yielded an IC50 in assay [6] of 58.8 µM.
Turning to `COc1cc2ncnc(Nc3cccc(Cl)c3)c2cc1OC` [TYRPHOSTIN AG-1478], the IC50 in assay [2] is 2.7 µM; in assay [3] it was above 10 µM; in assay [5], above 100 µM.
As to `COC(=O)Cn1cc(-c2cccc(Cl)c2)c(=O)c2c(O)cc(OC)cc21`, the concentration for half-maximal inhibition (IC50) in assay [1] was above 10 µM; in assay [2] it was above 10 µM; in assay [3] it was above 10 µM; in assay [5], above 100 µM.
For `Oc1cc(O)c2c(O)c(-c3cccc(Cl)c3)cnc2c1`, the IC50 in assay [1] is above 10 µM; in assay [2] it was 8 µM; in assay [3] it was above 10 µM; in assay [4], 2 µM; in assay [5], above 100 µM; in assay [6], 0.008 µM.
`COc1cc(O)c2c(O)c(-c3cccc(Cl)c3)cnc2c1`: the IC50 in assay [1] was above 100 µM; in assay [2], above 100 µM; in assay [3], above 10 µM; in assay [4] it was 6 µM; in assay [5], above 100 µM; in assay [6], 0.038 µM.
As for `COc1cc(OC)c2c(=O)c(-c3cccc(Cl)c3)coc2c1`, the figures for the IC50 in assay [3], in assay [4] and in assay [6] were above 10 µM, above 100 µM and 500 µM, respectively.
Take `O=c1c(-c2cccc(Cl)c2)coc2cc(O)cc(O)c12`: the IC50 in assay [1] was 20 µM; in assay [2], above 100 µM; in assay [3] it was above 10 µM; in assay [4], 12 µM; in assay [5], above 100 µM; in assay [6], 0.095 µM.
With `O=c1c(-c2ccc(O)cc2)coc2cc(O)cc(O)c12` [GENISTEIN], the results for the IC50 in assay [1], in assay [2] and in assay [5] were above 10 µM, above 10 µM and above 100 µM, respectively.
`Oc1c(-c2cccc(Cl)c2)cnc2ccccc12` had an IC50 in assay [6] above 100 µM.

The record behind these values is ChEMBL document CHEMBL1132606, “Use of a pharmacophore model for the design of EGFR tyrosine kinase inhibitors: isoflavones and 3-phenyl-4(1H)-quinolones” (J Med Chem, 1999).
